Data from paper PMC10077444, “Evaluation of In Vivo Biological Activity Profiles of Isoindole-1,3-dione Derivatives: Cytotoxicity, Toxicology, and Histopathology Studies” (ACS Omega, 2023).
pIC50: −log10 of the molar value. “And” between values parts separate entries of the source, which are not always exact repeats. Equal values may be shown once.

Tests used:
[1] = tested on: A549-Luc lung cancer cells; assay: In vivo xenograft tumor model, tumor size by IVIS imaging; parameters: species or system nude mice; conditions: for tumor size: individual nude mice, Tnd = tumor not detected, Ex = dead; for tumor outcome after treatment: A549-Luc xenograft nude mice, IVIS imaging; for tumor size initially: before treatment, individual nude mice (1)-(5)
Method: Luc cell line (A549-Luc cell), which has luciferase activity, was used to determine the cancer treatment potential of compounds 3 and 4 for in vivo experiments. Cells were cultured in DMEM Ham’s F12 [10% FBS, 1% L-glutamine, 1% gentamicin, and 1 mM 4-(2-hydroxyethyl)-1-piperazineethanesulfonic acid] broth in a CO2 incubator set at 37 °C. Sufficient stocks were prepared by passaging the cells twice a week, and cells that actively proliferated in the logarithmic phase were used in the tests.
Approval for monitoring the cancer treatment potential of the synthesized structures in vivo conditions was taken by the Animal Ethics Committee of Ege University on 24.01.2018 with the number 2018-015. Male atypical nude mice, 6–8 weeks old, were used for in vivo xenograft tumor models. […] For the purpose of xenograft administration, nude mice were injected subcutaneously with 100 μL of 5 × 10^6 A549-Luc cell suspension. The presence of cancer after cell administration to nude mice was followed by imaging with an IVIS device. In order to monitor tumor formation and tumor volume detection, luciferin [Biovision Inc., USA; 12 mg/mL in phosphate-buffered saline (PBS)] was injected intraperitoneally followed by visualization with IVIS 5 min later. When tumor volume reaches about 2000 mm^3, cancerous nudes are divided into three groups: the control group, 3 group, and 4 group. Grouping was made as 3–5 animals in each group. The following procedures were prepared according to the groups, and then they were implemented. In addition, the weights of nude mice were regularly checked and recorded.
Compound 3(Y) group: Compound 3(Y) was prepared in DMSO at a concentration of 200 μM, and 20 μL was administered via the tail vein in three doses a week.
Compound 4(X) group: Compound 4(X) was prepared in DMSO at a concentration of 200 μM, and 20 μL was given three doses a week through the tail vein.
Male atypical nude mice aged 6–8 weeks are commonly used in in vivo xenograft tumor models. A549-luc lung cancer cells were injected into nude mice in all three groups, and tumor growth was induced with a xenograft model. For xenograft administration, 100 μL of 5 × 10^6 A549-luc cell suspension was injected subcutaneously into nude mice. After cell application to nude mice, it was determined whether there was cancer or not by imaging with the IVIS device. After the cancer groups were formed, the treatment phase was started. Compound 4(X) substance, compound 3(Y), and cancer control groups were formed, five in each group. Each prepared sample was given to the animals by tail vein administration, three doses (as described in Section 2.3) per week, and the IVIS images taken at 5 min after luciferin (200 μL of 12 mg/mL stock administered […]) at certain time intervals were evaluated. Although no tumor was detected on the 15th day after cell implantation, the treatment was continued for two more weeks and whether the tumor recurred or not was determined by IVIS imaging.

[2] = tested on: HeLa cell lines; parameters: method as in PMID 31759659; conditions: 48 h; cited from earlier work
[3] = 28 day subacute toxicity study, blood biochemical parameters; conditions: for ALB / ALT / AST / TBIL: 200 μM group, 100 μL i.v. 3 times a week for 4 weeks, blood
[4] = tested on: CD1 mice; conditions: in vivo
[5] = 28 day subacute toxicity study, weight change
[6] = 7 days, 200 μM, 20 μL tail vein, three doses a week

For `CC(=O)O[C@@H]1[C@@H]2C(=O)N(Cc3ccccc3)C(=O)[C@@H]2C=C[C@H]1Cl` [compound 4], the tumor size [1, 6] was “Tnd ^a”, the tumor size ([1]; 15 days) was “Tnd ^a and Ex” and the tumor size ([1]; 45 days) was “Tnd ^a and Ex”. For the same compound, the “tumor outcome after treatment” value [1] was “completely destroyed”, the tumor size initially [1] was 570.91 mm^3 and 403.71 mm^3 and 482.52 mm^3 and 1518.02 mm^3 and 1124.09 mm^3 and the pIC50 [2] was 3.85. For the same compound, the ALB [3] was 2.63 ± 0.07, the ALT [3] was 57.5 ± 0.71 and the AST [3] was 94.5 ± 3.54. The TBIL [3] was 0.03 ± 0.03.

In the case of `CC(=O)O[C@H]1C=C[C@H](OC(C)=O)[C@H]2C(=O)N(Cc3ccccc3)C(=O)[C@H]21` [compound 3], the tumor size [1, 6] was “Tnd”, the tumor size ([1]; 15 days) was “Tnd” and the tumor size ([1]; 45 days) was “Tnd”. For the same compound, the “tumor outcome after treatment” value [1] was “completely destroyed”, the tumor size initially [1] was 404.93 mm^3 and 301.26 mm^3 and 424.93 mm^3 and 731.33 mm^3 and 600.97 mm^3 and the “cardiac muscle: increase in the connective tissue between the muscle fibers” value ([4]; both, CD1, mouse, 28 day) was “higher level compared to the 4 groups”. The “cardiac muscle: discus intercalaris” value ([4]; mouse) was “moderate/high level of erasure”, the “kidney: severity of histopathological findings, compounds compared” value ([4]; mouse) was “more severe” and the “liver: severity of histopathological findings, compounds compared” value ([4]; mouse) was “more severe”. The pIC50 [2] was 3.83, the “Weight, group average” value ([5]; 1st dose (200 μM) female, 7d) was 26.732 G and the “Weight, group average” value ([5]; 1st dose (200 μM) female, 14d) was 27.624 G. The “Weight, group average” value ([5]; 1st dose (200 μM) female, 21d) was 26.9 G, the “Weight, group average” value ([5]; 1st dose (200 μM) female, 28d) was 26.61 G and the “Weight, group average” value ([5]; 1st dose (200 μM) female, initial) was 26.516 G. For the same compound, the “Weight, group average” value ([5]; 1st dose (200 μM) male, 7d) was 34.102 G, the “Weight, group average” value ([5]; 1st dose (200 μM) male, 14d) was 35.088 G and the “Weight, group average” value ([5]; 1st dose (200 μM) male, 21d) was 34.89 G. For the same compound, the “Weight, group average” value ([5]; 1st dose (200 μM) male, 28d) was 35.932 G, the “Weight, group average” value ([5]; 1st dose (200 μM) male, initial) was 33.35 G and the “Weight, group average” value ([5]; 2nd dose (100 μM) female, 7d) was 27.582 G. For the same compound, the “Weight, group average” value ([5]; 2nd dose (100 μM) female, 14d) was 27.204 G, the “Weight, group average” value ([5]; 2nd dose (100 μM) female, 21d) was 27.848 G and the “Weight, group average” value ([5]; 2nd dose (100 μM) female, 28d) was 28.604 G. The “Weight, group average” value ([5]; 2nd dose (100 μM) female, initial) was 27.71 G, the “Weight, group average” value ([5]; 2nd dose (100 μM) male, 7d) was 32.196 G and the “Weight, group average” value ([5]; 2nd dose (100 μM) male, 14d) was 33.33 G. The “Weight, group average” value ([5]; 2nd dose (100 μM) male, 21d) was 33.42 G, the “Weight, group average” value ([5]; 2nd dose (100 μM) male, 28d) was 34.952 G and the “Weight, group average” value ([5]; 2nd dose (100 μM) male, initial) was 32.388 G. The “Weight, group average” value ([5]; 3rd dose (50 μM) female, 7d) was 23.104 G, the “Weight, group average” value ([5]; 3rd dose (50 μM) female, 14d) was 23.97 G and the “Weight, group average” value ([5]; 3rd dose (50 μM) female, 21d) was 24.27 G. For the same compound, the “Weight, group average” value ([5]; 3rd dose (50 μM) female, 28d) was 25.092 G, the “Weight, group average” value ([5]; 3rd dose (50 μM) female, initial) was 24.338 G and the “Weight, group average” value ([5]; 3rd dose (50 μM) male, 7d) was 35.528 G. The “Weight, group average” value ([5]; 3rd dose (50 μM) male, 14d) was 36.106 G, the “Weight, group average” value ([5]; 3rd dose (50 μM) male, 21d) was 36.43 G and the “Weight, group average” value ([5]; 3rd dose (50 μM) male, 28d) was 38.348 G. For the same compound, the “Weight, group average” value ([5]; 3rd dose (50 μM) male, initial) was 35.076 G, the ALB [3] was 2.34 ± 0.05 and the ALT [3] was 60.5 ± 6.36. The AST [3] was 114 ± 9.90, the TBIL [3] was 0.02 ± 0.01 and the “increase of AST level compared with the control group” value ([3]; 1st dose (200 μM) groups) was “more than the increase related to 4”.
